Where two headings read alike, the source gives them in different places.
Legend:
TNF-α production = test: Inhibitory activity against cytokine (TNF-α) production in LPS-stimulated RAW264.7 cells; assay type: cell-based, mouse; details: Mus musculus, 1 μM test compound, LPS 10 ng/mL
Description: The mouse monocyte/macrophage cell line, RAW264.7 (ATCC TIB71) was purchased from Dainippon Pharmaceutical Co., Ltd. The RAW264.7 cells were cultured in a CO2 incubator (37° C., 95% of humidity, 5% of CO2) by using the Dulbecco's modified Eagle's medium (DMEM medium; GIBCO, Cat. No. 11995-040) containing bovine fetal serum (the final concentration: 10% (v/v), MOREGATE, lot No. 474030), penicillin G (the final concentration: 50 units/mL […], GIBCO) and streptomycin (the final concentration: 20 μg/mL, GIBCO).
Sixty (60) μL of the RAW264.7 cell suspension (83,000 cells/mL) were plated into each well of a 96-well microplate (5,000 cells/well). After the cells were cultured for 4 hr in a CO2 incubator, 40 μL of DMEM medium containing 25 ng/mL of LPS (Sigma-Aldrich Japan K. K.) were added into each well (final concentration of LPS: 10 ng/mL). The test compound dissolved in DMSO at a concentration of 1 mM was diluted with DMEM medium by 20 times. Then 2 μL/well of the diluted solution were added to wells containing the plated cells (final concentration of the test compound: 1 μM). As the control, 2 μL/well of DMSO diluted with DMEM medium by 20 times were added to wells containing the plated cells either with LPS (final concentration: 10 ng/mL) or without LPS. After these cells were cultured in a CO2 incubator for 15 hr, the supernatant of the medium was recovered. The amount of mTNF-α in the medium supernatant was determined with a mouse TNF-α ELISA kit Quantikine M (R&D System), according to the experiment protocol attached with the kit.
The inhibitory activity of the test compound against TNF-α production was calculated according to the following equation.
A: The amount of TNF-α in the presence of test compound
B: The amount of TNF-α in the control without LPS
C: The amount of TNF-α in the control with 10 ng/mL of LPS
Inhibitory Activity of the Test Compound against TNF-α Production (%)=100−(A−B)/(C−B)×100

[1] = tested on: Mouse preadipocyte strain 3T3-L1; test: Inhibition of differentiation as an indication of acetic acid uptake; assay type: cell-based; details: Mus musculus, control (0.01% dimethylsulfoxide) = 100%, read-out: Rate of Uptake (%) of [2-14C] acetic acid
Method in brief: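 Differentiation is indexed by 1 hr [2-14C]acetic acid incorporation, measured by scintillation counting and given as uptake relative to 0.01% DMSO control (100%). Mouse 3T3-L1 preadipocytes, pre-grown 10 days, received 0.1 μM test substance throughout a 4-day insulin/IBMX/dexamethasone induction, followed by 2 days' maintenance culture.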

Rat white adipocytes [2] = test: Stimulation of differentiation of the adipocytes (Oil Red O); assay type: cell-based; details: Rattus norvegicus, Adipocyte, 120 h, 100 nM test compound; 5 days; Oil Red O ABS550; control = 100%, blank = 0%; Table 7; read-out: Rate of Differentiation (%)
Description: Rat white adipocytes contained in the white adipocyte culture kit, which was purchased from HOKUDO, were used. Mediums for proliferation and for differentiation-inducing, which were contained in the white adipocyte culture kit purchased from HOKUDO, were used.
Immediately after arrival of the purchased cells, all medium for transportation was discarded and replaced with 5 ml of proliferation medium (/25 cm^2-flask) and the cells were cultured for one day. Then, a cell suspension was prepared with proliferation medium so as to be 83,000 cells/mL, and the suspension was plated into a type I 96-well collagen-coated microplate (SUMITOMO BAKELITE CO., ltd.) so as to be 5,000 cells/well (60 μL/well). For the blank, the proliferation medium without the cells was plated into the well (blank well) of each plate.
Further, 1) in the group treated with the test compound, 3 μL/well of a solution in which the test compound (100 μM) was dissolved in DMSO solution and diluted with differentiation-inducing medium by 20 times (final concentration of the test compound: 100 nM, final concentration of DMSO: 0.1% (v/v)) were added to the well where the cells were plated. 2) In the control group, 3 μL/well of DMSO solution that was diluted with differentiation-inducing medium by 20 times (final concentration of DMSO: 0.1% (v/v)) were added to the well where the cells were plated. Further, 3) in the blank group, 3 μL/well of DMSO solution that was diluted with differentiation-inducing medium by 20 times (final concentration: 0.1% (v/v)) were added to the blank well.
After culturing for 5 days, all differentiation-inducing medium was discarded and replaced with 60 μL of 10% (v/v) of formaldehyde solution (for fixation) in each well and the cells were kept stationary for 20 min at room temperature. After this the fixative solution was discarded and replaced with 60 μL of 0.2% (v/v) Triton X (Sigma-Aldrich Japan K. K.) solution in each well and kept stationary for 5 min at the room temperature. Then all Triton X solution was discarded and replaced with 60 μL of 60% (v/v) isopropanol solution containing dissolved Oil Red 0 (Sigma-Aldrich Japan K. K.) so as to be 0.3%, which was adipose tissue staining solution, and the well was left stationary for 10 min at room temperature. After the adipose tissue staining solution was discarded, the well was washed twice with 60 μL of 60% (v/v) isopropanol solution. Then, 100 μL of the DMSO were added to each well and stirred for 5 min at room temperature. The absorbance was measured at 550 nm (ABS550) with a multi-plate reader (LabsSystems), and the stained amount by Oil Red 0 was determined. The measured level at ABS550 in the control group was defined as 100%, while the level at ABS550 in the blank group was defined as 0%. The differentiation rate (%) of the adipocytes treated with the test compound was calculated.

Rat white adipocytes [3] = test: Inhibition of the differentiation of adipocytes (Oil Red O); assay type: cell-based; details: Rattus norvegicus, Adipocyte, 120 h, 100 nM test compound; 5 days; Oil Red O ABS550; control = 100%, blank = 0%; Table 3; read-out: Rate of Differentiation (%)
Method in brief: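 Rat white preadipocytes, 5,000 cells/well, given differentiation medium with compound at 100 nM final (0.1% DMSO) for 5 days at 37 °C. Lipid stained with Oil Red O, eluted in DMSO, read at 550 nm; differentiation % relative to DMSO control (100%) and blank (0%).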

| Structure (SMILES) | inhibition at 1 µM (TNF-α production; RAW264.7, 15 h) [%] | activity at 0.1 µM ([1]; 3T3-L1, 0.1 μM test substance) [%] | activity at 0.1 µM (Rat white adipocytes [2]) [%] | inhibition at 1 µM (TNF-α production; 15 hr) [%] | activity at 0.1 µM ([1]; 0.1 μM test substance) [%] | activity at 0.1 µM (Rat white adipocytes [3]) [%] |
| --- | --- | --- | --- | --- | --- | --- |
| CCc1ccc(NC(=O)c2cc([N+](=O)[O-])ccc2Cl)cc1 [Example 12, N-(4-Ethylphenyl)-(2-chloro-5-nitrophenyl)carboxamide] | 21.8 | 66.4 | 120 | – | – | – |
| CCc1ccccc1NC(=O)c1cc([N+](=O)[O-])ccc1Cl [Example 13, N-(2-Ethylphenyl)-(2-chloro-5-nitrophenyl)carboxamide] | 16.2 | 93 | 127 | – | – | – |
| O=C(Nc1nc(-c2cccc([N+](=O)[O-])c2)cs1)c1cc([N+](=O)[O-])ccc1Cl [Example 61, N-[4-(3-Nitrophenyl)thiazol-2-yl]-(2-chloro-5-nitrophenyl)carboxamide] | – | – | – | 22.6 | 74.8 | – |
| O=C(Nc1nc2ccc(Cl)cc2s1)c1cc([N+](=O)[O-])ccc1Cl [Example 68, N-(6-Chlorobenzothiazol-2-yl)-(2-chloro-5-nitrophenyl)carboxamide] | 15.2 | 67.9 | 116 | – | – | – |
| O=C(Nc1ccc(NC(=O)c2cc([N+](=O)[O-])ccc2Cl)cc1)c1cccnc1 [Example 123, N-[4-(Pyridin-3-ylcarbonylamino)phenyl]-(2-chloro-5-nitrophenyl)carboxamide] | 15.1 | 96.2 | 148 | – | – | – |
| CC(=O)Oc1ccc(-c2ccc(NC(=O)c3cc([N+](=O)[O-])ccc3Cl)cc2)cc1 [Example 134, N-[4-(4-Acetoxyphenyl)phenyl]-(2-chloro-5-nitrophenyl)carboxamide] | 16.4 | – | 120 | – | – | – |
| O=C(Nc1ccc(C(=O)N2CCN(c3ccccc3)CC2)cc1)c1cc([N+](=O)[O-])ccc1Cl [Example 165, N-[4-(4-Phenylpiperazin-1-ylcarbonyl)phenyl]-(2-chloro-5-nitrophenyl)carboxamide] | 15.7 | – | – | – | – | 85.8 |
| CCCCCCN(CCCC)c1ccc(-c2ccc(NC(=O)c3cc([N+](=O)[O-])ccc3Cl)cc2)cc1 [Example 199, N-[4-[4-(N-Butyl-N-hexylamino)phenyl]phenyl]-(2-chloro-5-nitrophenyl)carboxamide] | 20.8 | – | – | – | – | 35.8 |
| CCCCCN(CCC)c1ccc(-c2ccc(NC(=O)c3cc([N+](=O)[O-])ccc3Cl)cc2)cc1 [Example 211, N-[4-[4-(N-Pentyl-N-propylamino)phenyl]phenyl]-(2-chloro-5-nitrophenyl)carboxamide] | 27.6 | – | – | – | – | 37.3 |
| Nc1ccc(-c2csc(NC(=O)c3cc([N+](=O)[O-])ccc3Cl)n2)cc1 [Example 241, N-[4-(4-Aminophenyl)thiazol-2-yl]-(2-chloro-5 nitrophenyl)carboxamide] | 28 | – | – | – | – | 57.9 |
| CCOC(=O)NC(=O)Nc1ccc(-c2ccc(NC(=O)c3cc([N+](=O)[O-])ccc3Cl)cc2)cc1 [Example 244, N-[4-[4-(Ethoxycarbonylaminocarbonylamino)phenyl]phenyl]-(2-chloro-5-nitrophenyl)carboxamide] | 26.5 | – | – | – | – | 45 |
| O=C(NCc1ccccc1)Nc1ccc(-c2ccc(NC(=O)c3cc([N+](=O)[O-])ccc3Cl)cc2)cc1 [Example 248, N-[4-[4-(Benzylaminocarbonylamino)phenyl]phenyl]-(2-chloro-5-nitrophenyl)carboxamide] | 19.1 | – | – | – | – | 64.4 |
| Nc1cccc(-c2csc(NC(=O)c3cc([N+](=O)[O-])ccc3Cl)n2)c1 [Example 253, N-[4-(3-Aminophenyl)thiazol-2-yl]-(2-chloro-5-nitrophenyl)carboxamide] | 29 | – | – | – | – | 55.7 |

— US20030134859A1 (SANKYO COMPANY, LIMITED, priority 2000, published 2003)
